Paper PMC10850501 (Nature Communications, 2024)
Where “and” joins values, the source holds several entries; their conditions need not be identical. Equal values may be shown once. Read-outs that look alike come from different tables or passages of the source. Peptide text beside a SMILES is read from it.

Legend:
[1] = system: SARS-CoV-2 Spike pseudotyped viruses, HEK-293T-ACE2 cells; type: cell-based, SARS-CoV-2 (Wuhan-Hu-1 Spike); conditions: for inhibition of pseudovirus, in words: 10 µM
[2] = system: SARS-CoV-2 live virus (B.1 lineage), Vero E6 cells; type: cell-based
Cytocompatibility (CCK8) = type: cell-based, human; conditions: human, A549 cells, read-out: cytocompatibility, normalized to serum free media; for viability at 6 h, 10 µM: 0.01 mM peptide; for viability at 6 h, 100 µM: 0.1 mM peptide; for viability at 6 h, 1000 µM: 1 mM peptide
Method: (§1) Cytocompatibility of the peptides was evaluated at 1, 0.1, and 0.01 mM with A549 cells (ATCC CCL-185) cultured in complete media consisting of 90% F-12K and 10% FBS. The A549 cells were utilized after their first passage and seeded at 10,000 cells/well in a 96-well plate for 24 hours. The conditions were prepared in serum-free A549 media and introduced into the wells for 6 hours, after which the condition media were aspirated, the wells were washed once with PBS, and 10 µL of CCK8 was added to 100 µL of PBS[32]. The plate was incubated for 1 hour and read on a Tecan M200 Infinite plate reader at an absorbance of 450 nm with a reference wavelength of 650 nm. The results were analyzed and normalized to the serum-free media control[28],[32],[76].

A549 cells = experiment: Cytocompatibility (CCK8); type: cell-based, human; conditions: human alveolar epithelial A549 cells; 0.01-1 mM
Method: as §1

[3] = replicate 1, CCK8, 6 h exposure, absorbance 450 nm

CC[C@H](C)[C@H](NC(=O)CNC(=O)[C@H](CCCCN)NC(=O)[C@H](CC(C)C)NC(=O)[C@H](CO)NC(=O)[C@H](CC(C)C)NC(=O)[C@H](CO)NC(=O)[C@H](CC(C)C)NC(=O)[C@H](CO)NC(=O)[C@H](CC(C)C)NC(=O)[C@H](CO)NC(=O)[C@H](CC(C)C)NC(=O)[C@H](CO)NC(=O)[C@H](CC(C)C)NC(=O)[C@H](CO)NC(=O)[C@H](CCCCN)NC(C)=O)C(=O)N[C@@H](CCC(=O)O)C(=O)N[C@@H](CCC(=O)O)C(=O)N[C@@H](CCC(N)=O)C(=O)N[C@@H](C)C(=O)N[C@@H](CCCCN)C(=O)N[C@H](C(=O)N[C@@H](Cc1ccccc1)C(=O)N[C@@H](CC(C)C)C(=O)N[C@@H](CC(=O)O)C(=O)N[C@@H](CCCCN)C(=O)N[C@@H](Cc1ccccc1)C(=O)N[C@@H](CC(N)=O)C(=O)N[C@@H](Cc1c[nH]cn1)C(=O)N[C@@H](CCC(=O)O)C(=O)N[C@@H](C)C(=O)N[C@@H](CCC(=O)O)C(=O)N[C@@H](CC(=O)O)C(=O)N[C@@H](CC(C)C)C(=O)N[C@@H](Cc1ccccc1)C(=O)N[C@@H](Cc1ccc(O)cc1)C(=O)N[C@@H](CCC(N)=O)C(=O)N[C@@H](CO)C(N)=O)[C@@H](C)O [KSBP1]
Normalized, Average [1]: 0.8193
inhibition of pseudovirus, in words [1]: significant decrease in inhibitory effect

CC[C@H](C)[C@H](NC(=O)CNC(=O)[C@H](CCC(=O)O)NC(=O)[C@H](CC(C)C)NC(=O)[C@H](CO)NC(=O)[C@H](CC(C)C)NC(=O)[C@H](CO)NC(=O)[C@H](CC(C)C)NC(=O)[C@H](CO)NC(=O)[C@H](CC(C)C)NC(=O)[C@H](CO)NC(=O)[C@H](CC(C)C)NC(=O)[C@H](CO)NC(=O)[C@H](CC(C)C)NC(=O)[C@H](CO)NC(=O)[C@H](CCC(=O)O)NC(C)=O)C(=O)N[C@@H](CCC(=O)O)C(=O)N[C@@H](CCC(=O)O)C(=O)N[C@@H](CCC(N)=O)C(=O)N[C@@H](C)C(=O)N[C@@H](CCCCN)C(=O)N[C@H](C(=O)N[C@@H](Cc1ccccc1)C(=O)N[C@@H](CC(C)C)C(=O)N[C@@H](CC(=O)O)C(=O)N[C@@H](CCCCN)C(=O)N[C@@H](Cc1ccccc1)C(=O)N[C@@H](CC(N)=O)C(=O)N[C@@H](Cc1c[nH]cn1)C(=O)N[C@@H](CCC(=O)O)C(=O)N[C@@H](C)C(=O)N[C@@H](CCC(=O)O)C(=O)N[C@@H](CC(=O)O)C(=O)N[C@@H](CC(C)C)C(=O)N[C@@H](Cc1ccccc1)C(=O)N[C@@H](Cc1ccc(O)cc1)C(=O)N[C@@H](CCC(N)=O)C(=O)N[C@@H](CO)C(N)=O)[C@@H](C)O [ESBP1]
live virus inhibition, in words [2]: significant improvement in viral inhibition
Relative PFU ([2]; 10 µM): 51.2258 and 58.5437 and 80.4976
Normalized, Average [1]: 0.2588
inhibition of pseudovirus, in words [1]: inhibited pseudovirus to a similar degree

CC[C@H](C)[C@H](NC(=O)[C@H](Cc1ccc(O)cc1)NC(=O)[C@@H](NC(=O)[C@H](CCCCN)NC(=O)[C@H](Cc1ccc(O)cc1)NC(=O)[C@H](CCC(N)=O)NC(C)=O)[C@@H](C)O)C(=O)N[C@@H](CC(=O)O)C(=O)N[C@@H](CCCCN)C(=O)N[C@@H](CC(N)=O)C(=O)N[C@@H](CC(N)=O)C(=O)N[C@@H](Cc1c[nH]cn1)C(=O)N[C@@H](Cc1ccc(O)cc1)C(=O)N[C@@H](C)C(=O)N[C@@H](CCC(=O)O)C(=O)N[C@@H](CC(=O)O)C(=O)N[C@@H](CCC(=O)O)C(=O)N[C@@H](CCCNC(=N)N)C(=O)N[C@@H](Cc1ccc(O)cc1)C(=O)N[C@@H](CCCCN)C(N)=O [SBP3] (Ac-QYKTYIDKNNHYAEDERYK-NH2)
Comparative, Average [2]: 72.3704
live virus plaque inhibition, in words [2]: no major differences
viability at 6 h, 10 µM (Cytocompatibility (CCK8); replicate 1, CCK8, 6 h): 104%
viability at 6 h, 10 µM (Cytocompatibility (CCK8); replicate 2, CCK8, 6 h): 96.9%
viability at 6 h, 100 µM (Cytocompatibility (CCK8); replicate 1, CCK8, 6 h): 77.8%
viability at 6 h, 100 µM (Cytocompatibility (CCK8); replicate 2, CCK8, 6 h): 94.4%
viability at 6 h, 100 µM (Cytocompatibility (CCK8); replicate 3, CCK8, 6 h): 95.5%
viability at 6 h, 1000 µM (Cytocompatibility (CCK8); [3]): 144%
viability at 6 h, 1000 µM (Cytocompatibility (CCK8); replicate 2, CCK8, 6 h): 139%

CSCC[C@H](NC(=O)[C@H](Cc1ccccc1)NC(=O)[C@H](CCCCN)NC(=O)[C@H](CC(=O)O)NC(=O)[C@H](CC(C)C)NC(=O)[C@H](Cc1ccccc1)NC(=O)[C@@H](NC(=O)[C@H](CCCCN)NC(=O)[C@H](CC(C)C)NC(=O)[C@H](CCC(N)=O)NC(=O)[C@H](CCC(=O)O)NC(=O)[C@H](CCC(=O)O)NC(=O)[C@H](CC(C)C)NC(=O)[C@H](C)NC(=O)[C@H](CO)NC(C)=O)[C@@H](C)O)C(=O)N[C@@H](Cc1c[nH]cn1)C(=O)N[C@@H](CCC(=O)O)C(=O)N[C@@H](CC(C)C)C(=O)N[C@@H](CCC(=O)O)C(=O)N[C@@H](CC(=O)O)C(=O)N[C@@H](CC(C)C)C(=O)N[C@@H](CC(C)C)C(=O)N[C@@H](Cc1ccc(O)cc1)C(=O)N[C@@H](CCC(N)=O)C(=O)N[C@@H](CC(C)C)C(=O)N[C@@H](C)C(=O)N[C@@H](CC(C)C)C(N)=O [SBP2, reference compound] (Ac-SALEEQLKTFLDKFMHELEDLLYQLAL-NH2)
in vitro live virus inhibition, in words [2]: inhibition of live virus
viability at 6 h, 10 µM (Cytocompatibility (CCK8); replicate 1, CCK8, 6 h): 105%
viability at 6 h, 10 µM (Cytocompatibility (CCK8); replicate 2, CCK8, 6 h): 92.2%
viability at 6 h, 100 µM (Cytocompatibility (CCK8); replicate 1, CCK8, 6 h): 107%
viability at 6 h, 100 µM (Cytocompatibility (CCK8); replicate 2, CCK8, 6 h): 104%
viability at 6 h, 100 µM (Cytocompatibility (CCK8); replicate 3, CCK8, 6 h): 91.4%
viability at 6 h, 1000 µM (Cytocompatibility (CCK8); [3]): 85.7%
viability at 6 h, 1000 µM (Cytocompatibility (CCK8); replicate 2, CCK8, 6 h): 122%
viability at 6 h, 1000 µM (Cytocompatibility (CCK8); replicate 3, CCK8, 6 h): 150%
cytocompatibility, in words (A549 cells): excellent cytocompatibility
